Experimental findings from patent US20080194616A1, “PYRIDOPYRIMIDINONE COMPOUNDS USEFUL IN TREATING SODIUM CHANNEL-MEDIATED DISEASES OR CONDITIONS” (Xenon Pharmaceuticals Inc., priority 2007, published 2008) are described below.

Structures can show the parent of a compound that is named as a salt.

One data set concerns sodium channel. In words: Guanidine Influx Assay (In Vitro Assay). The class given is cell-based, human or rat. As to conditions: known cell line that expresses a sodium channel; read-out: IC50 Activity Level. An excerpt:
This example describes an in vitro assay for testing and profiling test agents against human or rat sodium channels stably expressed in cells of either an endogenous or recombinant origin. The assay is also useful for determining the IC-50 of a sodium channel blocking compound. The assay is based on the guanidine flux assay described by Reddy, N. L., et al., J. Med. Chem. (1998), 41(17):3298-302.
The guanidine influx assay is a radiotracer flux assay used to determine ion flux activity of sodium channels in a high-throughput microplate-based format. The assay uses ^14C-guanidine hydrochloride in combination with various known sodium channel modulators, to assay the potency of test agents. Potency is determined by an IC-50 calculation. Selectivity is determined by comparing potency of the compound for the channel of interest to its potency against other sodium channels (also called ‘selectivity profiling’).
Each of the test agents is assayed against cells that express the channels of interest. Voltage gated sodium channels are either TTX sensitive or insensitive. This property is useful when evaluating the activities of a channel of interest when it resides in a mixed population with other sodium channels. The following Table 1 summarizes cell lines useful in screening for a certain channel activity in the presence or absence of TTX.
Cells expressing the channel of interest are grown according to the supplier or in the case of a recombinant cell in the presence of selective growth media such as G418 (Gibco/Invitrogen). The cells are disassociated from the culture dishes with an enzymatic solution (1×) Trypsin/EDTA (Gibco/Invitrogen) and analyzed for density and viability using haemocytometer (Neubauer). Disassociated cells are washed and resuspended in their culture media then plated into Scintiplates (Beckman Coulter Inc.) (approximately 100,000 cells/well) and incubated at 37° C./5% CO2. for 20-24 hours. After an extensive wash with Low sodium HEPES-buffered saline solution (LNHBSS) (150 mM Choline Chloride, […] (Sigma), 1 mM Calcium Chloride, 5 mM Potassium Chloride, 1 mM Magnesium Chloride, 10 mM Glucose) agents diluted with LNHBSS are added to each well. (Varying concentrations of test agent may be used). The activation/radiolabel mixture contains aconitine (Sigma), and ^14C-guanidine hydrochloride (ARC).
After loading the cells with test agent and activation/radiolabel mixture, the Scintiplates are incubated at ambient temperature. Following the incubation, the Scintplates are extensively washed with LNHBSS supplemented with guanidine (Sigma). The Scintiplates are dried and then counted using a Wallac MicroBeta TriLux (Perkin-Elmer Life Sciences). The ability of the test agent to block sodium channel activity is determined by comparing the amount of ^14C-guanidine present inside the cells expressing the different sodium channels.
IC-50 value of a test agent for a specific sodium channel may be determined using the above general method. IC-50 may be determined using a 3,8,10,12 or 16 point curve in duplicate or triplicate with a starting concentration of 1, 5 or 10 μM diluted serially with a final concentration reaching the sub-nanomolar, nanomolar and low micromolar ranges. Typically the mid-point concentration of test agent is set at 1 μM, and sequential concentrations of half dilutions greater or smaller are applied (e.g. 0.5 μM; […] and 0.25 μM; 10 μM and 0.125 μM; 20 μM etc.). The IC-50 curve is calculated using the 4 Parameter Logistic Model or Sigmoidal Dose-Response Model formula (fit=(A+((B−A)/(1+((C/x)̂D)))).

By IC50 is commonly meant the point on the concentration scale where inhibition reaches its midpoint. As a reminder, the melting point is the temperature, or range, at which the solid turns liquid. As to `COc1nc2ccccn2c(=O)c1-c1ccc(NC2CCN(C(=O)OC(C)(C)C)C2)cc1` (stereo not shown) [Example 3.19, tert-butyl 3-{[4-(2-methoxy-4-oxo-4H-pyrido[1,2-a]pyrimidin-3-yl)phenyl]amino}pyrrolidine-1-carboxylate], the melting point lay within 102 to 104 °C. Further, the IC50 in the data set with sodium channel is not below 10 µM.

As for `CC(C)c1nc2ccccn2c(=O)c1-c1ccc(Cl)cc1` [Example 1.5, 3-(4-chlorophenyl)-2-(1-methylethyl)-4H-pyrido[1,2-a]pyrimidin-4-one], the melting point is 98 to 100 °C. The IC50 in the data set on sodium channel is not below 10 µM.

As to `CCCCc1nc2ccccn2c(=O)c1-c1ccc(N[C@@H]2CCN(C(=O)OC(C)(C)C)C2)cc1C` [Example 3.10, (R)-tert-butyl 3-{[4-(2-butyl-4-oxo-4H-pyrido[1,2-a]pyrimidin-3-yl)-3-methylphenyl]amino}pyrrolidine-1-carboxylate], the melting point was 162 to 168 °C. In the data set on sodium channel, the IC50 was not below 10 µM.

`CCCCc1nc2ccccn2c(=O)c1-c1ccc(O)cc1` [Example 11, 2-butyl-3-(4-hydroxyphenyl)-4H-pyrido[1,2-a]pyrimidin-4-one]: the melting point was 160 °C (dec.). In the data set on sodium channel, the IC50 was not below 10 µM.

Consider `CC(C)c1nc2ccccn2c(=O)c1-c1ccc(N[C@@H]2CCN(C(=O)OC(C)(C)C)C2)cc1` (stereo in doubt) [Example 3.6, tert-butyl 3-({4-[2-(1-methylethyl)-4-oxo-4H-pyrido[1,2-a]pyrimidin-3-yl]phenyl}amino)pyrrolidine-1-carboxylate], for which the melting point fell in the range of 232 to 236 °C. In addition, the IC50 with sodium channel was not below 10 µM.

The compound `CCCNc1nc2ccccn2c(=O)c1-c1ccc(NC2CCN(C(=O)OC(C)(C)C)C2)cc1` (stereo not shown) [Example 3.21, tert-butyl 3-({4-[4-oxo-2-(propylamino)-4H-pyrido[1,2-a]pyrimidin-3-yl]phenyl}amino)pyrrolidine-1-carboxylate] came in with a melting point of 187 to 190 °C. For the same compound, the IC50 in the data set with sodium channel is not below 10 µM.

Take `CCCCc1nc2ccccn2c(=O)c1-c1ccc(OC)cc1` [Example 1, 2-butyl-3-(4-methoxyphenyl)-4H-pyrido[1,2-a]pyrimidin-4-one]: the IC50 with sodium channel is not below 10 µM.

`CCCNc1nc2ccccn2c(=O)c1-c1ccc(NC2CCNC2)cc1` (stereo not shown) [Example 7.8, 2-(propylamino)-3-[4-(pyrrolidin-3-ylamino)phenyl]-4H-pyrido[1,2-a]pyrimidin-4-one hydrochloride]: the IC50 with sodium channel is not below 10 µM.

In the case of `CCCCc1nc2ccccn2c(=O)c1-c1ccc(NC[C@H]2CCCO2)cc1` [Example 3.27, (R)-2-butyl-3-(4-{[tetrahydrofuran-2-ylmethyl]amino}phenyl)-4H-pyrido[1,2-a]pyrimidin-4-one hydrochloride], in the data set on sodium channel, the IC50 is not below 10 µM.

In turn, `COc1nc2ccccn2c(=O)c1-c1ccc(Cl)cc1` [Example 1.24, 3-(4-chlorophenyl)-2-methoxy-4H-pyrido[1,2-a]pyrimidin-4-one] displayed a melting point of 149 to 151 °C. Further, the IC50 in the data set with sodium channel is not below 10 µM.

On to `CCCCc1nc2ccccn2c(=O)c1-c1ccc(NC2CCNC2)cc1` (stereo not shown) [Example 7, 2-butyl-3-(4-(pyrrolidin-3-ylamino)phenyl)-4H-pyrido[1,2-a]pyrimidin-4-one hydrochloride], for which the IC50 in the data set with sodium channel was not below 10 µM.

With `CCCCc1nc2ccccn2c(=O)c1-c1ccc(NC(=O)OC(C)(C)C)cc1` [Example 1.15, tert-butyl 4-(2-butyl-4-oxo-4H-pyrido[1,2-a]pyrimidin-3-yl)phenylcarbamate], the melting point fell in the range of 132 to 135 °C. In addition, in the data set on sodium channel, the IC50 was not below 10 µM.

Regarding `CCCCc1nc2cc(C(F)(F)F)ccn2c(=O)c1-c1ccc(Cl)cc1` [Example 1.21, 2-butyl-3-(4-chlorophenyl)-8-(trifluoromethyl)-4H-pyrido[1,2-a]pyrimidin-4-one], the IC50 with sodium channel was not below 10 µM.

On to `CCCc1nc2ccccn2c(=O)c1-c1ccc(N[C@@H]2CCNC2)cc1` [Example 6.5, (R)-2-propyl-3-(4-(pyrrolidin-3-ylamino)phenyl)-4H-pyrido[1,2-α]pyrimidin-4-one hydrochloride], for which the IC50 in the data set on sodium channel is not below 10 µM.

`CCCCc1nc2ccccn2c(=O)c1-c1ccc(N[C@@H]2CCNC2)cc1C` [Example 7.3, (R)-2-butyl-3-{2-methyl-4-[pyrrolidin-3-ylamino]phenyl}-4H-pyrido[1,2-a]pyrimidin-4-one hydrochloride]: the IC50 in the data set with sodium channel was not below 10 µM.

`CCCCc1nc2ccccn2c(=O)c1-c1ccc(Cl)cc1` [Example 1.8, 2-butyl-3-(4-chlorophenyl)-4H-pyrido[1,2-a]pyrimidin-4-one]: the IC50 with sodium channel is not below 10 µM.

Compound `CCCCc1nc2ccccn2c(=O)c1-c1ccc(NC(=O)[C@@H]2CCCN2)cc1.Cl` [Example 18, (S)—N-[4-(2-butyl-4-oxo-4H-pyrido[1,2-a]pyrimidin-3-yl)phenyl]prolinamide hydrochloride] gave a melting point of 179 to 187 °C. Further, the IC50 in the data set on sodium channel is not below 10 µM.

Consider `CCCOc1nc2ccccn2c(=O)c1-c1ccc(N[C@@H]2CCNC2)cc1` [Example 9.1, (R)-2-propoxy-3-(4-(pyrrolidin-3-ylamino)phenyl)-4H-pyrido[1,2-a]pyrimidin-4-one trifluoroacetate], for which, in the data set on sodium channel, the IC50 is not below 10 µM.

Take `CCCCc1nc2c3ccccc3ccn2c(=O)c1-c1ccc(N[C@@H]2CCNC2)cc1` [Example 6.9, (R)-2-butyl-3-{4-[pyrrolidin-3-ylamino]phenyl}-4H-pyrimido[2,1-a]isoquinolin-4-one hydrochloride]: the IC50 in the data set with sodium channel is not below 10 µM.

`CCCCc1nc2ccc(Cl)cn2c(=O)c1-c1ccc(O)cc1` [Example 13, 2-butyl-7-chloro-3-(4-hydroxyphenyl)-4H-pyrido[1,2-a]pyrimidin-4-one]: the IC50 in the data set on sodium channel is not below 10 µM.

As to `CCCCc1nc2ccc(F)cn2c(=O)c1-c1ccc(N[C@@H]2CCNC2)cc1` [Example 6.7, (R)-2-butyl-7-fluoro-3-{4-[pyrrolidin-3-ylamino]phenyl}-4H-pyrido[1,2-a]pyrimidin-4-one hydrochloride], in the data set with sodium channel, the IC50 was not below 10 µM.

On to `CC(C)CCc1nc2ccccn2c(=O)c1-c1ccc(N[C@@H]2CCNC2)cc1` [Example 7.6, (R)-2-isopentyl-3-(4-(pyrrolidin-3-ylamino)phenyl)-4H-pyrido[1,2-a]pyrimidin-4-one hydrochloride], for which the IC50 in the data set with sodium channel is not below 10 µM.

As to `CCCCc1nc2ccc(C)cn2c(=O)c1-c1ccc(N[C@@H]2CCNC2)cc1` [Example 6.6, (R)-2-butyl-7-methyl-3-{4-[pyrrolidin-3-ylamino]phenyl}-4H-pyrido[1,2-a]pyrimidin-4-one hydrochloride], in the data set with sodium channel, the IC50 is not below 10 µM.

Regarding `CCCOc1nc2ccccn2c(=O)c1-c1ccc(Cl)cc1` [Example 1.25, 2-propoxy-3-(4-chlorophenyl)-4H-pyrido[1,2-a]pyrimidin-4-one], the IC50 in the data set on sodium channel is 1 to 10 µM.

Turning to `CCCCc1nc2ccccn2c(=O)c1-c1cccc(NC2CCNC2)c1` (stereo not shown) [Example 7.4, 2-butyl-3-[3-(pyrrolidin-3-ylamino)phenyl]-4H-pyrido[1,2-a]pyrimidin-4-one hydrochloride], the IC50 with sodium channel is not below 10 µM.

As to `Cc1nc2ccccn2c(=O)c1-c1ccc(N[C@@H]2CCNC2)cc1` [Example 6.3, (R)-2-methyl-3-(4-(pyrrolidin-3-ylamino)phenyl)-4H-pyrido[1,2-a]pyrimidin-4-one hydrochloride], the IC50 with sodium channel is not below 10 µM.

Consider `CCc1nc2ccccn2c(=O)c1-c1ccc(N[C@@H]2CCNC2)cc1` [Example 6.4, (R)-2-ethyl-3-(4-(pyrrolidin-3-ylamino)phenyl)-4H-pyrido[1,2-a]pyrimidin-4-one hydrochloride], for which, in the data set with sodium channel, the IC50 is not below 10 µM.

With `CCCCc1nc2ccccn2c(=O)c1-c1ccc(N[C@@H]2CCOC2)cc1` [Example 3.29, (R)-2-butyl-3-{4-[tetrahydrofuran-3-ylamino]phenyl}-4H-pyrido[1,2-a]pyrimidin-4-one hydrochloride], the IC50 in the data set on sodium channel is not below 10 µM.
